Several values for one entry are separate records, joined by “and”; a condition that tells them apart may be missing. Equal values may be shown once. Numbers after ± are expanded uncertainties.
Assay: specific heat capacity at constant pressure; xn = mol fraction of the nth substance listed
Settings: 100 kPa, Crystal of intercomponent compound 1, x2 = 0.477

[Se] [selenium] + [In]
specific heat capacity (117.9 K, relaxation calorimetry): 215.3 ± 8.8 J/K/kg
specific heat capacity (117.98 K, relaxation calorimetry): 213.08 ± 8.7 J/K/kg
specific heat capacity (121.94 K, relaxation calorimetry): 217.67 ± 8.8 J/K/kg
specific heat capacity (121.97 K, relaxation calorimetry): 216.38 ± 8.8 J/K/kg
specific heat capacity (125.98 K, relaxation calorimetry): 218.34 ± 8.9 J/K/kg and 218.39 ± 8.9 J/K/kg
specific heat capacity (130 K, relaxation calorimetry): 220.35 ± 9 J/K/kg
specific heat capacity (130.01 K, relaxation calorimetry): 220.87 ± 9 J/K/kg
specific heat capacity (133.92 K, relaxation calorimetry): 223.14 ± 9.1 J/K/kg
specific heat capacity (134.04 K, relaxation calorimetry): 219.79 ± 8.9 J/K/kg
specific heat capacity (138.04 K, relaxation calorimetry): 223.76 ± 9.1 J/K/kg
specific heat capacity (138.07 K, relaxation calorimetry): 223.97 ± 9.1 J/K/kg
specific heat capacity (141.97 K, relaxation calorimetry): 225.82 ± 9.2 J/K/kg
specific heat capacity (142.1 K, relaxation calorimetry): 222.52 ± 9 J/K/kg
specific heat capacity (146.07 K, relaxation calorimetry): 227.01 ± 9.2 J/K/kg
specific heat capacity (146.14 K, relaxation calorimetry): 226.7 ± 9.2 J/K/kg
specific heat capacity (150.02 K, relaxation calorimetry): 228.71 ± 9.3 J/K/kg
specific heat capacity (150.14 K, relaxation calorimetry): 225.72 ± 9.2 J/K/kg
specific heat capacity (154.13 K, relaxation calorimetry): 230.11 ± 9.3 J/K/kg
specific heat capacity (154.16 K, relaxation calorimetry): 229.02 ± 9.3 J/K/kg
specific heat capacity (162.19 K, relaxation calorimetry): 232.33 ± 9.4 J/K/kg
specific heat capacity (162.21 K, relaxation calorimetry): 231.34 ± 9.4 J/K/kg
specific heat capacity (170.26 K, relaxation calorimetry): 233.51 ± 9.5 J/K/kg
specific heat capacity (170.28 K, relaxation calorimetry): 234.13 ± 9.5 J/K/kg
specific heat capacity (178.32 K, relaxation calorimetry): 235.16 ± 9.5 J/K/kg
specific heat capacity (178.34 K, relaxation calorimetry): 235.63 ± 9.5 J/K/kg
specific heat capacity (186.37 K, relaxation calorimetry): 236.76 ± 9.6 J/K/kg
specific heat capacity (186.4 K, relaxation calorimetry): 237.23 ± 9.7 J/K/kg
specific heat capacity (194.4 K, relaxation calorimetry): 238 ± 9.7 J/K/kg
specific heat capacity (194.45 K, relaxation calorimetry): 238.31 ± 9.7 J/K/kg
specific heat capacity (202.42 K, relaxation calorimetry): 239.96 ± 9.8 J/K/kg
specific heat capacity (202.5 K, relaxation calorimetry): 239.65 ± 9.8 J/K/kg
specific heat capacity (210.44 K, relaxation calorimetry): 241.2 ± 9.8 J/K/kg
specific heat capacity (210.53 K, relaxation calorimetry): 241.05 ± 9.8 J/K/kg
specific heat capacity (218.46 K, relaxation calorimetry): 241.51 ± 9.8 J/K/kg
specific heat capacity (218.55 K, relaxation calorimetry): 241.2 ± 9.8 J/K/kg
specific heat capacity (226.5 K, relaxation calorimetry): 242.85 ± 9.9 J/K/kg
specific heat capacity (226.59 K, relaxation calorimetry): 242.65 ± 9.9 J/K/kg
specific heat capacity (234.52 K, relaxation calorimetry): 243.63 ± 9.9 J/K/kg
specific heat capacity (234.63 K, relaxation calorimetry): 243.37 ± 9.9 J/K/kg
specific heat capacity (242.56 K, relaxation calorimetry): 244.4 ± 9.9 J/K/kg
specific heat capacity (242.67 K, relaxation calorimetry): 244.04 ± 9.9 J/K/kg
specific heat capacity (250.6 K, relaxation calorimetry): 245.28 ± 10 J/K/kg
specific heat capacity (250.71 K, relaxation calorimetry): 245.12 ± 10 J/K/kg
specific heat capacity (255.57 K, relaxation calorimetry): 245.59 ± 10 J/K/kg
specific heat capacity (255.58 K, relaxation calorimetry): 246.52 ± 10 J/K/kg
specific heat capacity (258.63 K, relaxation calorimetry): 245.95 ± 10 J/K/kg
specific heat capacity (258.74 K, relaxation calorimetry): 245.79 ± 10 J/K/kg
specific heat capacity (264.04 K, relaxation calorimetry): 247.24 ± 10 J/K/kg
specific heat capacity (264.08 K, relaxation calorimetry): 246.1 ± 10 J/K/kg
specific heat capacity (265.74 K, Extra sensitive DSC): 248.37 ± 9.6 J/K/kg
specific heat capacity (266.66 K, relaxation calorimetry): 246.62 ± 10 J/K/kg
specific heat capacity (266.77 K, relaxation calorimetry): 246.57 ± 10 J/K/kg
specific heat capacity (270 K, Extra sensitive DSC): 248.48 ± 9.6 J/K/kg
specific heat capacity (272.24 K, relaxation calorimetry): 248.48 ± 10 J/K/kg
specific heat capacity (272.34 K, relaxation calorimetry): 248.43 ± 10 J/K/kg
specific heat capacity (274.69 K, relaxation calorimetry): 247.7 ± 10 J/K/kg
specific heat capacity (274.81 K, relaxation calorimetry): 247.7 ± 10 J/K/kg
specific heat capacity (275 K, Extra sensitive DSC): 248.79 ± 9.7 J/K/kg
specific heat capacity (280 K, Extra sensitive DSC): 249.1 ± 9.7 J/K/kg
specific heat capacity (280.72 K, relaxation calorimetry): 249.15 ± 10 J/K/kg
specific heat capacity (280.84 K, relaxation calorimetry): 248.06 ± 10 J/K/kg
specific heat capacity (282.72 K, relaxation calorimetry): 248.48 ± 10 J/K/kg
specific heat capacity (282.83 K, relaxation calorimetry): 248.37 ± 10 J/K/kg
specific heat capacity (285 K, Extra sensitive DSC): 249.51 ± 9.7 J/K/kg
specific heat capacity (288.98 K, relaxation calorimetry): 249.72 ± 10 J/K/kg
specific heat capacity (289.06 K, relaxation calorimetry): 248.53 ± 10 J/K/kg
specific heat capacity (290 K, Extra sensitive DSC): 249.92 ± 9.7 J/K/kg
specific heat capacity (290.72 K, relaxation calorimetry): 248.79 ± 10 J/K/kg
specific heat capacity (290.85 K, relaxation calorimetry): 248.94 ± 10 J/K/kg
specific heat capacity (294.72 K, relaxation calorimetry): 248.58 ± 10 J/K/kg
specific heat capacity (294.84 K, relaxation calorimetry): 249.25 ± 10 J/K/kg
specific heat capacity (295 K, Extra sensitive DSC): 250.03 ± 9.7 J/K/kg
specific heat capacity (297.48 K, relaxation calorimetry): 249.25 ± 10 J/K/kg
specific heat capacity (297.56 K, relaxation calorimetry): 248.74 ± 10 J/K/kg
specific heat capacity (298.75 K, relaxation calorimetry): 248.74 ± 10 J/K/kg
specific heat capacity (298.86 K, relaxation calorimetry): 250.59 ± 10 J/K/kg
specific heat capacity (300 K, Extra sensitive DSC): 250.18 ± 9.7 J/K/kg
specific heat capacity (303.85 K, relaxation calorimetry): 252.19 ± 10 J/K/kg
specific heat capacity (303.86 K, relaxation calorimetry): 252.14 ± 10 J/K/kg
specific heat capacity (305 K, Extra sensitive DSC): 250.39 ± 9.7 J/K/kg
specific heat capacity (305.75 K, relaxation calorimetry): 251.52 ± 10 J/K/kg
specific heat capacity (305.8 K, relaxation calorimetry): 251.11 ± 10 J/K/kg
specific heat capacity (306.87 K, relaxation calorimetry): 252.97 ± 10 J/K/kg and 252.76 ± 10 J/K/kg
specific heat capacity (310 K, Extra sensitive DSC): 251.42 ± 9.8 J/K/kg
specific heat capacity (315 K, Extra sensitive DSC): 252.09 ± 9.8 J/K/kg
specific heat capacity (320 K, Extra sensitive DSC): 251.78 ± 9.8 J/K/kg
specific heat capacity (325 K, Extra sensitive DSC): 252.3 ± 9.8 J/K/kg
specific heat capacity (330 K, Extra sensitive DSC): 253.12 ± 9.8 J/K/kg
specific heat capacity (335 K, Extra sensitive DSC): 254.52 ± 9.9 J/K/kg
specific heat capacity (340 K, Extra sensitive DSC): 254.88 ± 9.9 J/K/kg
specific heat capacity (345 K, Extra sensitive DSC): 255.7 ± 9.9 J/K/kg
specific heat capacity (350 K, Extra sensitive DSC): 256.89 ± 10 J/K/kg
specific heat capacity (355 K, Extra sensitive DSC): 257.82 ± 10 J/K/kg
specific heat capacity (357.87 K, Extra sensitive DSC): 258.59 ± 10 J/K/kg
